# Measurements: US9211310B2, “Use of a Chinese medicine composition in preparing medicaments for treating secondary prevention of myocardial infarction” (TASLY PHARMACEUTICAL GROUP CO., LTD, priority 2010, dated 2015)
# Tested on: patients after acute myocardial infarction
# Assay: Life quality, Seattle Angina Questionnaire (SAQ), same clinical trial
# Format: in vivo, human
# Conditions: 3 months after treatment
# Source text: 3508 patients who were in accordance with the diagnostic standards of AMI for 28 days to 2 years and differentiated as Qi deficiency and blood stagnation syndrome by TCM were studied. 0.5 g Chinese medicine composition prepared by the method of EXAMPLE 1 (Coded as QSYQ) was administrated half an hour after meal, 3 times per day.
# There were 19 questions in the Seattle angina questionnaire (SAQ), including 5 parts: physical limitation (PL), anginal stability (AS), anginal frequency (AF), treatment satisfaction (TS) and disease perception (DP). After being given necessary explanation by doctors, the questions were answered independently by patients.
# They included the overall survival time, angina pectoris score, TCM symptom score and life quality score, where angina pectoris score, TCM symptom score and life quality score were evaluated at randomization, in 1st, 3rd, 6th, 9th, 12th month after treatment and 18th month after follow-up.
# All evaluation results of SAQ were described during the period of observation, and Wilcoxon rank sum test was used for inter-group comparison.
# The evaluation results in the SAQ were depicted in different observations, and inter-group comparison was tested by Wilcoxon Rank-sum test.
smiles,measurement,setting,value
"CC(=O)Oc1ccccc1C(=O)O [Control group, aspirine]","SAQ 3rd question: <1 time per week, % of cases",FAS,(21.15%)
same,"SAQ 3rd question: <1 time per week, cases",FAS,368
same,"SAQ 3rd question: No onset, % of cases",FAS,(0.00%)
same,"SAQ 3rd question: No onset, cases",FAS,0
same,"SAQ 3rd question: ≧3 times per week, % of cases",FAS,(42.13%)
same,"SAQ 3rd question: ≧3 times per week, cases",FAS,733
same,"SAQ 3rd question: ≧4 times per day, % of cases",FAS,(0.92%)
same,"SAQ 3rd question: ≧4 times per day, cases",FAS,16
same,"SAQ Question 1-3: Mildly limited, number of patients",FAS,93
same,"SAQ Question 1-3: Mildly limited, percent of patients",FAS,(5.33%)
same,"SAQ Question 1-3: Moderately limited, number of patients",FAS,23
same,"SAQ Question 1-3: Moderately limited, percent of patients",FAS,(1.32%)
same,"SAQ Question 1-3: Not limited, number of patients",FAS,1318
same,"SAQ Question 1-3: Not limited, percent of patients",FAS,(75.57%)
same,"SAQ Question 1-3: Other reason, number of patients",FAS,9
same,"SAQ Question 1-3: Other reason, percent of patients",FAS,(0.52%)
same,"SAQ Question 1-3: Severely limited, number of patients",FAS,5
same,"SAQ Question 1-3: Severely limited, percent of patients",FAS,(0.29%)
same,"SAQ Question 1-3: Slightly limited, number of patients",FAS,296
same,"SAQ Question 1-3: Slightly limited, percent of patients",FAS,(16.97%)
same,"SAQ Question 1-4: Mildly limited, number of patients",FAS,325
same,"SAQ Question 1-4: Mildly limited, percent of patients",FAS,(18.65%)
same,"SAQ Question 1-4: Moderately limited, number of patients",FAS,120
same,"SAQ Question 1-4: Moderately limited, percent of patients",FAS,(6.88%)
same,"SAQ Question 1-4: Not limited, number of patients",FAS,668
same,"SAQ Question 1-4: Not limited, percent of patients",FAS,(38.32%)
same,"SAQ Question 1-4: Other limited, number of patients",FAS,12
same,"SAQ Question 1-4: Other limited, percent of patients",FAS,(0.69%)
same,"SAQ Question 1-4: Severely limited, number of patients",FAS,29
same,"SAQ Question 1-4: Severely limited, percent of patients",FAS,(1.66%)
same,"SAQ Question 1-4: Slightly limited, number of patients",FAS,589
same,"SAQ Question 1-4: Slightly limited, percent of patients",FAS,(33.79%)
same,"SAQ Question 1-5: Mildly limited, number of patients",FAS,311
same,"SAQ Question 1-5: Mildly limited, percent of patients",FAS,(17.84%)
same,"SAQ Question 1-5: Moderately limited, number of patients",FAS,162
same,"SAQ Question 1-5: Moderately limited, percent of patients",FAS,(9.29%)
same,"SAQ Question 1-5: Not limited, number of patients",FAS,709
same,"SAQ Question 1-5: Not limited, percent of patients",FAS,(40.68%)
same,"SAQ Question 1-5: Other reasons, number of patients",FAS,12
same,"SAQ Question 1-5: Other reasons, percent of patients",FAS,(0.69%)
same,"SAQ Question 1-5: Severely limited, number of patients",FAS,21
same,"SAQ Question 1-5: Severely limited, percent of patients",FAS,(1.20%)
same,"SAQ Question 1-5: Slightly limited, number of patients",FAS,528
same,"SAQ Question 1-5: Slightly limited, percent of patients",FAS,(30.29%)
same,"SAQ Question 1-9: Mildly limited, % of cases",FAS,(18.63%)
same,"SAQ Question 1-9: Mildly limited, cases",FAS,318
same,"SAQ Question 1-9: Moderately limited, % of cases",FAS,(20.04%)
same,"SAQ Question 1-9: Moderately limited, cases",FAS,342
same,"SAQ Question 1-9: Not limited, % of cases",FAS,(3.57%)
same,"SAQ Question 1-9: Not limited, cases",FAS,61
same,"SAQ Question 1-9: Other reaons, % of cases",FAS,(5.98%)
same,"SAQ Question 1-9: Other reaons, cases",FAS,102
same,"SAQ Question 1-9: Severely limited, % of cases",FAS,(38.90%)
same,"SAQ Question 1-9: Severely limited, cases",FAS,664
same,"SAQ Question 1-9: Slightly limited, % of cases",FAS,(12.89%)
same,"SAQ Question 1-9: Slightly limited, cases",FAS,220
same,"SAQ 2nd question: Clearly increased, % of cases",PP,(0.41%)
same,"SAQ 2nd question: Clearly increased, cases",PP,6
same,"SAQ 2nd question: Clearly reduced, % of cases",PP,(22.01%)
same,"SAQ 2nd question: Clearly reduced, cases",PP,322
same,"SAQ 2nd question: Same, % of cases",PP,(41.97%)
same,"SAQ 2nd question: Same, cases",PP,614
same,"SAQ 2nd question: Slightly increased, % of cases",PP,(3.42%)
same,"SAQ 2nd question: Slightly increased, cases",PP,50
same,"SAQ 2nd question: Slightly reduced, % of cases",PP,(32.19%)
same,"SAQ 2nd question: Slightly reduced, cases",PP,471
same,"SAQ 3rd question: 1-2 times per week, % of cases",PP,(32.19%)
same,"SAQ 3rd question: 1-2 times per week, cases",PP,471
same,"SAQ 3rd question: 1-3 times per day, % of cases",PP,(3.42%)
same,"SAQ 3rd question: 1-3 times per day, cases",PP,50
same,"SAQ 3rd question: <1 time per week, % of cases",PP,(22.01%)
same,"SAQ 3rd question: <1 time per week, cases",PP,322
same,"SAQ 3rd question: No onset, % of cases",PP,(0.00%)
same,"SAQ 3rd question: No onset, cases",PP,0
same,"SAQ 3rd question: ≧3 times per week, % of cases",PP,(41.97%)
same,"SAQ 3rd question: ≧3 times per week, cases",PP,614
same,"SAQ 3rd question: ≧4 times per day, % of cases",PP,(0.41%)
